According to patent EP1670820B1, “ANTIGENS FOR AN EAST COAST FEVER VACCINE” (International Livestock Research Institute ( ILRI), priority 2003, dated 2005):

Test system: peptide pulsed autologous iSF
Assay: 51Chromium release assay: CTL lysis of peptide pulsed autologous iSF
Type: cell-based, cattle
Conditions: autologous iSF pulsed overnight with peptide; BW014 polyclonal CD8+ CTL line (FIG. 9)

Sequence: SLVCVLMKC [Tp2 peptide 76B]
- lysis of iSF pulsed with peptide: background levels of lysis
